One experiment has as its system Caco-2 cells. The experiment is described as follows: Peptide targeting in live Caco-2 cells (fluorescein coupled peptides, confocal microscopy). The format is cell-based. Conditions: polarised Caco-2 monolayer, overnight incubation, 2 mM or 5 mM peptide; FIG. 5. How it is done: Caco-2 cells were grown on polycarbonate transwell filters (12 mm diameter, 0.4 μm pore size; Costar) in same media as HEK 293 cells) until a fully polarized monolayer was obtained as determined by resistance measurements. The live cells were then incubated overnight with amino terminally, fluorescein (FAM) coupled peptides: (A) 2 μM of ATQITWV (SEQ ID NO:214), (B) 2 μM ATQITWA (SEQ ID NO:215) or (C) 5 μM ASKITWV (SEQ ID NO:216) added into the media of the lower transwell chamber. The cells were then washed with Hanks Balanced Salt Solution (HBSS) with 1.8 mM CaCl2, fixed with ice cold methanol, permeabilized with 0.25% Triton X-100 in PBS, blocked with 5% donkey serum in PBS and stained with 1.5 μg monoclonal anti-γ-catenin antibody. The basolateral marker protein γ-catenin was visualized using Cy3-conjugated donkey anti-mouse antibodies (Jackson Immunolabs), diluted 1:1000. Processed filters were excised with a razor and mounted between a slide and coverslip with Vectashield mounting medium (Vector Labs; Burlingame, Calif.). Images were taken on a Leica confocal microscope using a 63X oil immersion objective.
Caco-2 cells were grown on polycarbonate transwell filters until a fully polarised monolayer was obtained. The live cells were then incubated overnight with the fluorescein (green) coupled peptides: (A) 2 mM of ATQITWV (SEQ ID NO:214), (B) 2 mM ATQITWA (SEQ ID NO:215) or (C) 5 mM ASKITW (SEQ ID NO:221) (FIG. 5). The cells were then fixed and counterstained with antibodies against the protein γ-catenin (FIG. 5). […] Substitution of A for V at the peptide carboxyl terminus should disrupt the interaction of a ligand with its cognate PDZ binding partner.

Experiment [1] concerns the target GST-MAGI-3 PDZ 2 (aa. 584-707 of SEQ ID NO:200) (human) [GST: P08515]. The experiment is described as follows: competition ELISA: peptide blocks GST-PDZ binding to immobilized peptide. Background: ELISA stands for enzyme-linked immunosorbent assay.
Experiment [2] shares this target. The experiment is described as follows: alanine scan, competition ELISA.
For the next experiment, the target named is T1, hZO1 PDZ1 (Homo sapiens, UniProt Q07157).
T1 construct: Human ZO1 (NM_003257) PDZ1; GST; made in house
The experiment is described as follows: IC50 (nM) | hZO1 PDZ1 | 5 nM | B01-88 | Bio-GGWRWTTWL (SEQ ID NO: 684) | 36 nM. As for the experimental part:
Table printed on a drawing sheet, FIG. 12A
Head of the field: IC50 (nM) | hZO1 PDZ1 | 5 nM | B01-88 | Bio-GGWRWTTWL (SEQ ID NO: 684) | 36 nM
The patent's description of the figure: FIG. 12. IC50 values indicating binding affinities of various peptides to PDZ domains
First copying reader's note: Upper left part of a table split over FIG. 12A-12D; further receptor columns and further peptides are on the other sheets.
Where the first naming reader finds the target: head: IC50 (nM) | hZO1 PDZ1 | 5 nM | B01-88

The next experiment concerns the target T2, MAGI 3 PDZ2 (Homo sapiens, UniProt Q5TCQ9).
T2 sequence (Q5TCQ9 584-707 isoform Q5TCQ9-2): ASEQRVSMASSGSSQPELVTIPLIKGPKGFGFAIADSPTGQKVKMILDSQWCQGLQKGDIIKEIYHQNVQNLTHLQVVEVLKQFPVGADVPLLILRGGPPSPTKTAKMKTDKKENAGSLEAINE
The experiment is described as follows: Competition ELISA, peptide blocking PDZ domain binding to immobilized peptide. The arrangement: made in house; host or cells: E. coli. The source says: (§1) Many methods are known and can be used to identify the binding affinities of PDZ domain binding ligands (e.g. peptides, proteins, small mollecules, etc.); for example, binding affinities can be determined as IC50 values using competition ELISAs. The IC50 value is defined as the concentration of ligand which blocks 50% of PDZ domain binding to a ligand. For example, in solid phase assays, assay plates may be prepared by coating microwell plates (preferably treated to efficiently absorb protein) with neutravidin, avidin or streptavidin. Non-specific binding sites are then blocked through addition of a solution of bovine serum albumin (BSA) or other proteins (for example, nonfat milk) and then washed, preferably with a buffer containing a detergent, such as Tween-20. A biotinylated known PDZ-domain ligand (for example, the phage peptides or cognate protein as fusions with GST or other such molecule to facilitate purification and detection) is prepared and bound to the plate. Serial delutions of the ligand to be tested with a PDZ domain polypeptide arc prepared and contacted with the bound ligand. The plate coated with the immobilized ligandis washed before adding each binding reaction to the wells and briefly incubated. After further washing, the binding reactions are detected, often with an antibody recognizing the non-PDZ fusion partner and a labeled (such as horseradish peroxidase (HRP), alkaline phosphatase (AP), or a fluorescent tag such as fluorescein) secondary antibody recognizing the primary antibody. The plates are then developed with the appropriate substrate (depending on the label) and the signal quantified, such as using a spectrophotometric plate reader. The absorption signal may be fit to a binding curve using a least squares fit. Thus the ability of the various ligands to inhibit PDZ domain from binding a known PDZ-domain ligand can be measured.
Prokaryotic: The ERBIN PDZ domain (aa. 1217-1371 of SEQ ID NO:201) or MAGI-3 PDZ 2 (aa. 584-707 of SEQ ID NO:200) were cloned into the EcoR 1/Not 1 or BamH 1/Not 1 sites of pGEX 6P-1 and pGEX 4T-3 E. coli expression vectors (Pharmacia) respectively. Expression and affinity purification of E coli expressed GST-proteins was performed as recommended by the manufacturer (Pharmacia).
(§2) Peptides corresponding to the selected sequences were synthesized and assayed for binding (Table 2). […] The data also confirmed that the minimal tetrapeptide selectants from the PDZ2 sort bind PDZ2 with high affinity. […] It appears that this large difference in binding affinity is attributable to the residue at P(−1), which is a Trp in the selected peptide as opposed to a Lys in PTEN/MMAC (compare HTQITWV with HTQITKV (SEQ ID NO:220), Table 2; The IC50 values are the concentrations of peptide that blocked 50% of PDZ domain binding to immobilized peptide in an ELISA).

The target in a further experiment is T3, MAGI 3 PDZ3 (Homo sapiens, UniProt Q5TCQ9).
T3 construct: PDZ2 and PDZ3 were purified as glutathione S-transferase (GST) fusions from E coli; GST; made in house; host or cells: E. coli
The experiment is described as above.
Source text: as §1, §2

Experiment [3] has as its target ERBIN PDZ-GST fusion protein (aa. 1217-1371 of SEQ ID NO:201) (human, UniProt P08515 1-218 = GST). The experiment is described as follows: competition ELISA: ERBIN PDZ-GST binding to immobilized biotin-PDZ 501.
Where [4] appears, read: MAGI 3 PDZ2, concentration of peptide that blocked 50% of PDZ domain binding to immobilized peptide in an ELISA, read-out: IC50 (μM) PDZ2.
The mark [5] stands for this setting: MAGI 3 PDZ3, concentration of peptide that blocked 50% of PDZ domain binding to immobilized peptide in an ELISA, read-out: IC50 (μM) PDZ3.

Where two headings read alike, the source gives them in different places. Where no end group is shown, it is not given here.

GST-MAGI-3 PDZ 2 (aa. 584-707 of SEQ ID NO:200) (human) [GST: P08515], sequence (P08515 whole entry): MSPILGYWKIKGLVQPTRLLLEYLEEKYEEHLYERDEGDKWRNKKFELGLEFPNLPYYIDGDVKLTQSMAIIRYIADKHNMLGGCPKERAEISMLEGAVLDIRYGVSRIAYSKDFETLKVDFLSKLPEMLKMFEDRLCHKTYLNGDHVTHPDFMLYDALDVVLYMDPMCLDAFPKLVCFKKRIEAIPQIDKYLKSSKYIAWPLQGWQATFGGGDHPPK
ERBIN PDZ-GST fusion protein (aa. 1217-1371 of SEQ ID NO:201), sequence (P08515 whole entry, the tested form may be a part): as the sequence (P08515 whole entry) above
T3 sequence (Q5TCQ9 726-808 limits assumed): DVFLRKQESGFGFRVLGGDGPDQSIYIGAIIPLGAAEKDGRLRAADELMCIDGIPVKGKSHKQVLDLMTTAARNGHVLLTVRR
T1 sequence (Q07157 23-110): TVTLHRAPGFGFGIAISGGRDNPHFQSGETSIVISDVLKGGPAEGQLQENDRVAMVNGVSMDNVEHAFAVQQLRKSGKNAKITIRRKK

As to “ASKITWV [amino terminally fluorescein (FAM) coupled peptide]”, in the experiment on Caco-2 cells, the “localization of fluorescein coupled peptide in live cells” value is “localize apically on the lateral membrane to the tight junction”.
For the molecule ASWV (peptide), in experiment [1], the IC50 (in general, the concentration needed to halve the response being measured) is 35 µM. For the same molecule, in experiment [2], the fold reduction in binding against CSWV stood at 25 fold.
Take “Ac-FETWL [3 | 01-08, SEQ ID NO: 642: N^AC-FETWL]”: the IC50 on hZO1 PDZ1 was 10400 nM.
In turn, “Ac-WRWTTWL [9 | 01-103, SEQ ID NO: 648: N^AC-WRWTTWL]” displayed a 50% inhibitory concentration (IC50) on hZO1 PDZ1 of 27 nM.
In the case of “Ac-WRWTTWV [13 | 01-31, SEQ ID NO: 652: N^AC-WRWTTWV]”, half-maximal inhibition on hZO1 PDZ1 (IC50) was put at 0.0443 nM.
On to “Ac-YRWTTWL [10 | 01-28, SEQ ID NO: 649: N^AC-YRWTTWL]”, for which, at hZO1 PDZ1, the IC50 stood at 31 nM.
In experiment [1], CAWV (peptide) had an IC50 of 7.3 µM. For the same molecule, in experiment [2], the fold reduction in binding against CSWV turned out to be 5 fold.
Taken in the same sequence, the figures for CSAV (peptide) were 200 µM and above 100 fold.
For CSWA (peptide), in that order: 400 µM and above 100 fold.
Take DGICSWV [DGICSWV]: the IC50 was 0.3 µM on MAGI 3 PDZ2 and above 1000 µM on MAGI 3 PDZ3.
With HTQITKV [HTQITKV, reference compound], the values for the IC50 at MAGI 3 PDZ2 (setting [4]) and at MAGI 3 PDZ3 (setting [5]) were 200 µM and above 1000 µM, respectively.
Taken in the same sequence, the figures for TRWWFDI-OH [TRWWFDI] were above 1000 µM and 0.9 µM.

B1: TGWETWV (peptide)
peptide: TGWETWV
notes: test peptide in solution
In turn, B1 showed an IC50 in experiment [3] of 0.5 to 1 µM.

B2: TGWDTWV (peptide)
peptide: TGWDTWV
Molecule B2 yielded an IC50 in experiment [3] of 4.5 to 5 µM.

B3: DVPA (peptide)
peptide: DVPA
notes: also called DVPA ligand
Molecule B3 displayed an IC50 in experiment [3] above 100 µM.

The values are drawn from patent US20030148264A1, “Phage displayed PDZ domain ligands” (GENENTECH, INC., priority 2001, published 2003).
